Laboratory results as given in patent publication US9822130B2, “Triazolo-pyrazinyl derivatives useful as soluble guanylate cyclase activators” (Merck Sharp & Dohme Corp., priority 2014, dated 2017).

Target: T1, sGC α1/β1 heterodimer stably expressed in CHO-K1 cell line (CHO-K1/sGC) (Homo sapiens, UniProt Q02108+Q02153)
T1 construct: expressed in transfected cells
T1 sequence (Q02108 1-690): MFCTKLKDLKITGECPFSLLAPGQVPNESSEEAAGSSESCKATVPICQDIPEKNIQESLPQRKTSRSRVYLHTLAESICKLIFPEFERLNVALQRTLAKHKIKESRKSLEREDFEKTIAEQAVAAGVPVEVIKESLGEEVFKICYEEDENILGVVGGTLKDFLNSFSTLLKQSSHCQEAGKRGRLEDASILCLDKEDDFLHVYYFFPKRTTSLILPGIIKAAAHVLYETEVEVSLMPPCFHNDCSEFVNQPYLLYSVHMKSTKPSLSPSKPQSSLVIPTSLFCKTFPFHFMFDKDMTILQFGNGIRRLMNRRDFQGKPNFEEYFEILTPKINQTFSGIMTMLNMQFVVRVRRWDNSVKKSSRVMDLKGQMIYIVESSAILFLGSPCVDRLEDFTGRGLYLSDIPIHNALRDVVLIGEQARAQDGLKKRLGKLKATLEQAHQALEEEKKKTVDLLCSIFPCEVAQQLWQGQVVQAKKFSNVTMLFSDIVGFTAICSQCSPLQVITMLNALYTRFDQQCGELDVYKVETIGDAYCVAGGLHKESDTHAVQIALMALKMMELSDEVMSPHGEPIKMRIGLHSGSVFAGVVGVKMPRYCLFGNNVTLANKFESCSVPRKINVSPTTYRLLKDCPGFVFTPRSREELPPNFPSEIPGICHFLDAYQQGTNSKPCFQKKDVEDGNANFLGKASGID
T1 sequence (Q02153 1-619): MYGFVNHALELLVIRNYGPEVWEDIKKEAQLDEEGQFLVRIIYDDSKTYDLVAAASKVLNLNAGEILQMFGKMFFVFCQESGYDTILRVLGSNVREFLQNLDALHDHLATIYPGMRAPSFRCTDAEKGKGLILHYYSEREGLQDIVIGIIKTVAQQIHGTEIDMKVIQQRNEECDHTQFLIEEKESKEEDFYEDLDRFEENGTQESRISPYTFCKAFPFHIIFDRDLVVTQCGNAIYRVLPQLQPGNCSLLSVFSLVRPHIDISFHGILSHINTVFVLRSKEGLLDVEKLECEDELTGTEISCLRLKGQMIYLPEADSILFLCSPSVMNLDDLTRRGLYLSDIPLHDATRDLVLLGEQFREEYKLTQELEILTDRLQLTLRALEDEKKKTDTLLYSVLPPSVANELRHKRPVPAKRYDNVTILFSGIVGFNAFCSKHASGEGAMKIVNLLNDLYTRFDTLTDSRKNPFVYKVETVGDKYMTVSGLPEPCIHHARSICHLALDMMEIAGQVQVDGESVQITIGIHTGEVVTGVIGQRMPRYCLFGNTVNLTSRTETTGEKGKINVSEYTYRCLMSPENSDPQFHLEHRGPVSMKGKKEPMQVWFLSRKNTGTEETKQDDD
Assay: Cell-based sGC Functional Assay (CASA Assay), cGMP generation
Details: CHO-K1/sGC cells, 1 hr at 37° C., cGMP by HTRF, 4P fit; presence or absence of 1 μM DETA-NO not given; read-out: IP (nM) (inflection point)
In short: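 CHO-K1 cells stably expressing human sGC α1/β1 (4×10^5/mL, 0.5 mM IBMX) were treated with compounds (2.5% DMSO final) ± 1 μM DETA-NO for 1 hr at 37° C. Intracellular cGMP measured by HTRF. Activity expressed as % of Compound A maximal cGMP; IP and maximum fold induction from 4P fit.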

Row | Structure (SMILES) | EC50 [nM]
1 | Nc1nc(-c2cn3ncnc3c(CCC(F)(F)C(F)(F)F)n2)nc2c1C(c1ccc(F)c(F)c1)(C1CC1)C(=O)N2 (centres unmarked) [Example 6A, 4-amino-5-cyclopropyl-5-(3,4-difluorophenyl)-2-(8-(3,3,4,4,4-pentafluorobutyl)-[1,2,4]triazolo[1,5-a]pyrazin-6-yl)-5H-pyrrolo[2,3-d]pyrimidin-6(7H)-one] | 27
2 | CC(C)n1cc(C2(C)C(=O)Nc3nc(-c4cn5ncnc5c(CCC(F)(F)C(F)(F)F)n4)nc(N)c32)nn1 (centres unmarked) [Example 20A, 4-amino-5-(1-isopropyl-1H-1,2,3-triazol-4-yl)-5-methyl-2-(8-(3,3,4,4,4-pentafluorobutyl)-[1,2,4]triazolo[1,5-a]pyrazin-6-yl)-5H-pyrrolo[2,3-d]pyrimidin-6(7H)-one] | 176
3 | O=C1Nc2nc(-c3cn4ncnc4c(CCCC(F)(F)F)n3)nc(O)c2C1(c1ccc(Cl)cc1)C1CC1 (centres unmarked) [Example 140B, 5-(4-chlorophenyl)-5-cyclopropyl-4-hydroxy-2-(8-(4,4,4-trifluorobutyl)-[1,2,4]triazolo[1,5-a]pyrazin-6-yl)-5H-pyrrolo[2,3-d]pyrimidin-6(7H)-one] | 277
4 | O=C1Nc2nc(-c3cn4ncnc4c(CCCC(F)(F)F)n3)nc(O)c2C1(c1ccc(C(F)(F)F)cc1)C1CC1 (centres unmarked) [Example 144A, 5-cyclopropyl-4-hydroxy-2-(8-(4,4,4-trifluorobutyl)-[1,2,4]triazolo[1,5-a]pyrazin-6-yl)-5-(4-(trifluoromethyl)phenyl)-5H-pyrrolo[2,3-d]pyrimidin-6(7H)-one] | 1300
5 | O=C1Nc2nc(-c3cn4ncnc4c(CCC(F)(F)C(F)(F)F)n3)nc(O)c2C1(c1cncc(F)c1)C1CC1 (centres unmarked) [Example 124B, 5-cyclopropyl-5-(5-fluoropyridin-3-yl)-4-hydroxy-2-(8-(3,3,4,4,4-pentafluorobutyl)-[1,2,4]triazolo[1,5-a]pyrazin-6-yl)-5H-pyrrolo[2,3-d]pyrimidin-6(7H)-one] | 1050
6 | CCCCc1nc(-c2nc(N)c3c(n2)NC(=O)C3(C)c2ccc(C)cn2)cn2ncnc12 (centres unmarked) [Example 71B, 4-amino-2-(8-butyl-[1,2,4]triazolo[1,5-a]pyrazin-6-yl)-5-methyl-5-(5-methylpyridin-2-yl)-5H-pyrrolo[2,3-d]pyrimidin-6(7H)-one] | 5.5
7 | N#Cc1ccc(C2(C3CC3)C(=O)Nc3nc(-c4cn5ncnc5c(CCC(F)(F)C(F)(F)F)n4)nc(N)c32)nc1 (centres unmarked) [Example 118A, 6-(4-Amino-5-cyclopropyl-6-oxo-2-(8-(3,3,4,4,4-pentafluorobutyl)-[1,2,4]triazolo[1,5-a]pyrazin-6-yl)-6,7-dihydro-5H-pyrrolo[2,3-d]pyrimidin-5-yl)nicotinonitrile] | 84.1
8 | CCCCc1nc(-c2nc(N)c3c(n2)NC(=O)C3(C)c2ccc(F)c(F)c2)cn2ncnc12 (centres unmarked) [Example 64B, 4-amino-2-(8-butyl-[1,2,4]triazolo[1,5-a]pyrazin-6-yl)-5-(3,4-difluorophenyl)-5-methyl-5H-pyrrolo[2,3-d]pyrimidin-6(7H)-one] | 5.1
9 | Nc1nc(-c2cn3ncnc3c(CCCC(F)(F)F)n2)nc2c1C(c1ncc(Cl)cn1)(C1CC1)C(=O)N2 (centres unmarked) [Example 41A, 4-amino-5-(5-chloropyrimidin-2-yl)-5-cyclopropyl-2-(8-(4,4,4-trifluorobutyl)-[1,2,4]triazolo[1,5-a]pyrazin-6-yl)-5H-pyrrolo[2,3-d]pyrimidin-6(7H)-one] | 27.8
10 | CCCCc1nc(-c2nc(O)c3c(n2)NC(=O)C3(C)c2ccc(Cl)cn2)cn2ncnc12 (centres unmarked) [Example 160A, 2-(8-butyl-[1,2,4]triazolo[1,5-a]pyrazin-6-yl)-5-(5-chloropyridin-2-yl)-4-hydroxy-5-methyl-5H-pyrrolo[2,3-d]pyrimidin-6(7H)-one] | 50.2
11 | CC1(c2cncc(F)c2)C(=O)Nc2nc(-c3cn4ncnc4c(CCC(F)(F)C(F)(F)F)n3)nc(O)c21 (centres unmarked) [Example 125A, 5-(5-fluoropyridin-3-yl)-4-hydroxy-5-methyl-2-(8-(3,3,4,4,4-pentafluorobutyl)-[1,2,4]triazolo[1,5-a]pyrazin-6-yl)-5H-pyrrolo[2,3-d]pyrimidin-6(7H)-one] | 575
12 | Cc1ccc(C2(C)C(=O)Nc3nc(-c4cn5ncnc5c(CCCC(F)(F)F)n4)nc(O)c32)nc1 (centres unmarked) [Example 149B, 4-hydroxy-5-methyl-5-(5-methylpyridin-2-yl)-2-(8-(4,4,4-trifluorobutyl)-[1,2,4]triazolo[1,5-a]pyrazin-6-yl)-5H-pyrrolo[2,3-d]pyrimidin-6(7H)-one] | 990
13 | Nc1nc(-c2cn3ncnc3c(CCC(F)(F)F)n2)nc2c1C(c1ccc(Cl)cn1)(C1CC1)C(=O)N2 (centres unmarked) [Example 82A, 4-amino-5-(5-chloropyridin-2-yl)-5-cyclopropyl-2-(8-(3,3,3-trifluoropropyl)-[1,2,4]triazolo[1,5-a]pyrazin-6-yl)-5H-pyrrolo[2,3-d]pyrimidin-6(7H)-one] | 555
14 | CCCc1nc(-c2nc(O)c3c(n2)NC(=O)C3(c2ccc(F)c(F)c2)C2CC2)cn2ncnc12 (centres unmarked) [Example 167A, 5-cyclopropyl-5-(3,4-difluorophenyl)-4-hydroxy-2-(8-propyl-[1,2,4]triazolo[1,5-a]pyrazin-6-yl)-5H-pyrrolo[2,3-d]pyrimidin-6(7H)-one] | 1090
15 | CCCc1nc(-c2nc(N)c3c(n2)NC(=O)C3(c2ccc(Cl)cn2)C2CC2)cn2ncnc12 (centres unmarked) [Example 57A, 4-amino-5-(5-chloropyridin-2-yl)-5-cyclopropyl-2-(8-propyl-[1,2,4]triazolo[1,5-a]pyrazin-6-yl)-5H-pyrrolo[2,3-d]pynmidin-6(7H)-one] | 577
16 | CCCc1nc(-c2nc(N)c3c(n2)NC(=O)C3(C)c2ccc(F)cn2)cn2ncnc12 (centres unmarked) [Example 54B, 4-amino-5-(5-fluoropyridin-2-yl)-5-methyl-2-(8-propyl-[1,2,4]triazolo[1,5-a]pyrazin-6-yl)-5H-pyrrolo[2,3-d]pyrimidin-6(7H)-one] | 318
17 | CC1(c2ccc(Cl)cn2)C(=O)Nc2nc(-c3cn4ncnc4c(CCCC(F)(F)F)n3)nc(O)c21 (centres unmarked) [Example 134A, 5-(5-chloropyridin-2-yl)-4-hydroxy-5-methyl-2-(8-(4,4,4-trifluorobutyl)-[1,2,4]triazolo[1,5-a]pyrazin-6-yl)-5H-pyrrolo[2,3-d]pyrimidin-6(7H)-one] | 857
18 | CC1(c2nnc(C(F)(F)F)o2)C(=O)Nc2nc(-c3cn4ncnc4c(CCCC(F)(F)F)n3)nc(N)c21 (centres unmarked) [Example 101A, 4-amino-5-methyl-2-(8-(4,4,4-trifluorobutyl)-[1,2,4]triazolo[1,5-a]pyrazin-6-yl)-5-(5-(trifluoromethyl)-1,3,4-oxadiazol-2-yl)-5H-pyrrolo[2,3-d]pyrimidin-6(7H)-one] | 121
19 | C[C@@]1(c2ccc(F)cc2)C(=O)Nc2nc(-c3cn4ncnc4c(CCC(F)(F)C(F)(F)F)n3)nc(O)c21 [Example 119A, (S)-5-(4-fluorophenyl)-4-hydroxy-5-methyl-2-(8-(3,3,4,4,4-pentafluorobutyl)-[1,2,4]triazolo[1,5-a]pyrazin-6-yl)-5,7-dihydro-6H-pyrrolo[2,3-d]pyrimidin-6-one] | 134
20 | CC1(c2cccc(F)c2)C(=O)Nc2nc(-c3cn4ncnc4c(CCC(F)(F)C(F)(F)F)n3)nc(N)c21 (centres unmarked) [Example 14B, 4-amino-5-(3-fluorophenyl)-5-methyl-2 (8-(3,3,4,4,4-pentafluorobutyl)-[1,2,4]triazolo[1,5-a]pyrazin-6-yl)-5H-pyrrolo[2,3-d]pyrimidin-6(7H)-one] | 5.5

Same assay, conditions: CHO-K1/sGC cells, 1 hr at 37° C., cGMP by HTRF; presence or absence of 1 μM DETA-NO not given; read-out: % Act. (percent activation relative to maximum cGMP production of Compound A = 100%)

Row | Structure (SMILES) | Emax [%]
21 | CCCCc1nc(-c2nc(N)c3c(n2)NC(=O)C3(C)c2ccc(F)c(F)c2)cn2ncnc12 (centres unmarked) [Example 64B, 4-amino-2-(8-butyl-[1,2,4]triazolo[1,5-a]pyrazin-6-yl)-5-(3,4-difluorophenyl)-5-methyl-5H-pyrrolo[2,3-d]pyrimidin-6(7H)-one] | 90
22 | CCCc1nc(-c2nc(O)c3c(n2)NC(=O)C3(c2ccc(F)c(F)c2)C2CC2)cn2ncnc12 (centres unmarked) [Example 167A, 5-cyclopropyl-5-(3,4-difluorophenyl)-4-hydroxy-2-(8-propyl-[1,2,4]triazolo[1,5-a]pyrazin-6-yl)-5H-pyrrolo[2,3-d]pyrimidin-6(7H)-one] | 70
23 | CC1(c2cccc(F)c2)C(=O)Nc2nc(-c3cn4ncnc4c(CCC(F)(F)C(F)(F)F)n3)nc(N)c21 (centres unmarked) [Example 14B, 4-amino-5-(3-fluorophenyl)-5-methyl-2 (8-(3,3,4,4,4-pentafluorobutyl)-[1,2,4]triazolo[1,5-a]pyrazin-6-yl)-5H-pyrrolo[2,3-d]pyrimidin-6(7H)-one] | 90
